Measurements: patent US20260232666A1, “COMPOSITIONS AND METHODS FOR INHIBITION OF RAS” (TheRas, Inc., priority 2023, published 2026)

How the values were obtained:
pERK in NCI-H358 cells = experiment: Cell-based pERK HTRF assay (pERK inhibition in H358 cells); conditions: 30 min incubation
Method in brief: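 NCI-H358 cells were seeded at 4×10^4 cells/well in RPMI/10% FBS, then treated next day for 30 min at 0.25% DMSO (9-point, 3-fold series from 75 μM). Lysates were read by HTRF (d2/Eu cryptate antibody pair, 615 nm emission) after 4–24 h at room temperature to give pERK IC50.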

[1] = biological target: T1, GTP-loaded KRAS4b (amino acids 1-169) G12C/C118S protein (Homo sapiens, UniProt P01116, C118S/G12C); experiment: Covalent cysteine 12 modification by MALDI-TOF MS, GTP-loaded KRAS G12C; type: binding; conditions: 15 minutes reaction time point
T1 construct: KRAS4b (amino acids 1-169) G12C/C118S protein; made in house
Method in brief: (§1)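 1 μM GppNHp-, GTP- or GDP-loaded KRAS4b (1-169) G12C/C118S in 20 mM HEPES, 150 mM NaCl, 1 mM MgCl2, pH 7.3, at 1:2.5 protein:compound, room temperature in the dark. Percent Cys12 modification from MALDI-TOF peak heights (adduct/total protein), reported at 15 min.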

[2] = biological target: T2, GppNHp-loaded KRAS4b (amino acids 1-169) G12C/C118S protein (Homo sapiens, UniProt P01116, C118S/G12C); experiment: Covalent cysteine 12 modification by MALDI-TOF MS, GppNHp-loaded KRAS G12C; type: binding; conditions: 15 minutes reaction time point
T2 construct: KRAS4b (amino acids 1-169) G12C/C118S protein; made in house
Method in brief: as §1

[3] = biological target: T3, GDP-loaded KRAS4b (amino acids 1-169) G12C/C118S protein (Homo sapiens, UniProt P01116, C118S/G12C); experiment: Covalent cysteine 12 modification by MALDI-TOF MS, GDP-loaded KRAS G12C; type: binding; conditions: 15 minutes reaction time point
T3 construct: KRAS4b (amino acids 1-169) G12C/C118S protein; made in house
Method in brief: as §1

IC50 (pERK in NCI-H358 cells; Homo sapiens, NCI-H358, 0.5 h) | GTP-KRAS G12C percent of modification [1] | GppNHp-KRAS G12C percent of modification [2] | GDP-KRAS G12C percent of modification [3] | IC50 (pERK in NCI-H358 cells) | SMILES
< 100 nM | A (percent of modification ≥70%) | A (percent of modification ≥70%) | A (percent of modification ≥70%) |  | C=CC(=O)N1C[C@H](C)N(c2nc(OC[C@@]34CCCN3C[C@H](F)C4)nc3c(F)c(-c4ccc(F)c5sc(N)c(C#N)c45)c(Cl)cc23)C[C@H]1C (atropisomer, axis not shown) [Compound 102]
 | D (percent of modification <10%) | D (percent of modification <10%) | D (percent of modification <10%) | 100 to 1000 nM | C=CC(=O)N1C[C@H](C)N(c2nc(OC[C@@]34CCCN3C[C@H](F)C4)nc3c(F)c(-c4ccc(F)c5sc(N)c(C#N)c45)c(Cl)cc23)C[C@H]1C (atropisomer, axis not shown) [Compound 103]
< 100 nM | A (percent of modification ≥70%) | A (percent of modification ≥70%) | A (percent of modification ≥70%) |  | C=CC(=O)N1CC[C@@H](N(C)c2nc(OC[C@@H]3CC4(CC4)CN3C)nc3c(F)c(-c4ccc(F)c5sc(N)c(C#N)c45)c(C(F)(F)F)cc23)[C@@H]1C (atropisomer, axis not shown) [Compound 111]
 | A (percent of modification ≥70%) | A (percent of modification ≥70%) | A (percent of modification ≥70%) | < 100 nM | C=CC(=O)N1CC[C@@H](N(CC)c2nc(OC[C@@H]3C[C@@H](F)CN3C)nc3c(F)c(-c4ccc(F)c5sc(N)c(C#N)c45)c(C(F)(F)F)cc23)[C@H]1C (atropisomer, axis not shown) [Compound 113]
 | D (percent of modification <10%) | D (percent of modification <10%) | D (percent of modification <10%) | > 1000 nM | C=CC(=O)N1CC[C@@H](N(CC)c2nc(OC[C@@H]3C[C@@H](F)CN3C)nc3c(F)c(-c4ccc(F)c5sc(N)c(C#N)c45)c(C(F)(F)F)cc23)[C@H]1C (atropisomer, axis not shown) [Compound 114]
 | A (percent of modification ≥70%) | A (percent of modification ≥70%) | A (percent of modification ≥70%) | < 100 nM | C=CC(=O)N1CC[C@@H](N(C)c2nc(OC[C@@H]3CCCN3C)nc3c(F)c(-c4ccc(F)c5sc(N)c(C#N)c45)c(Cl)cc23)[C@H]1C (atropisomer, axis not shown) [Compound 118]
 | D (percent of modification <10%) | D (percent of modification <10%) | D (percent of modification <10%) | > 1000 nM | C=CC(=O)N1CC[C@@H](N(C)c2nc(OC[C@@H]3CCCN3C)nc3c(F)c(-c4ccc(F)c5sc(N)c(C#N)c45)c(Cl)cc23)[C@H]1C (atropisomer, axis not shown) [Compound 119]
 | A (percent of modification ≥70%) | A (percent of modification ≥70%) | A (percent of modification ≥70%) | < 100 nM | C=CC(=O)N1CC[C@@H](N(CC)c2nc(OC[C@@H]3CC4(CC4)CN3C)nc3c(F)c(-c4ccc(F)c5sc(N)c(C#N)c45)c(Cl)cc23)[C@H]1C (atropisomer, axis not shown) [Compound 120]
 | D (percent of modification <10%) | D (percent of modification <10%) | D (percent of modification <10%) | > 1000 nM | C=CC(=O)N1CC[C@@H](N(CC)c2nc(OC[C@@H]3CC4(CC4)CN3C)nc3c(F)c(-c4ccc(F)c5sc(N)c(C#N)c45)c(Cl)cc23)[C@H]1C (atropisomer, axis not shown) [Compound 121]
 | A (percent of modification ≥70%) | A (percent of modification ≥70%) | A (percent of modification ≥70%) | < 100 nM | C=CC(=O)N1CC[C@@H](N(C)c2nc(OC[C@@H]3CCCN3C)nc3c(F)c(-c4ccc(F)c5sc(N)c(C#N)c45)c(C(F)(F)F)cc23)[C@H]1C (atropisomer, axis not shown) [Compound 131]
 | D (percent of modification <10%) | D (percent of modification <10%) | D (percent of modification <10%) | > 1000 nM | C=CC(=O)N1CC[C@@H](N(C)c2nc(OC[C@@H]3CCCN3C)nc3c(F)c(-c4ccc(F)c5sc(N)c(C#N)c45)c(C(F)(F)F)cc23)[C@H]1C (atropisomer, axis not shown) [Compound 132]
< 100 nM | B (50≤percent of modification <70%) | C (10%≤percent of modification <50%) | C (10%≤percent of modification <50%) |  | C=CC(=O)N1CC[C@H](N(CC)c2nc(OC[C@@]34CCCN3C[C@H](F)C4)nc3c(F)c(-c4ccc(F)c5sc(N)c(C#N)c45)c(C(F)(F)F)cc23)C1 (atropisomer, axis not shown) [Compound 171]
< 100 nM | A (percent of modification ≥70%) | A (percent of modification ≥70%) | A (percent of modification ≥70%) |  | C=CC(=O)N1C[C@H](N(C)c2nc(OC[C@@]34CCCN3C[C@H](F)C4)nc3c(F)c(-c4ccc(F)c5sc(N)c(C#N)c45)c(C(F)(F)F)cc23)C[C@H]1C (atropisomer, axis not shown) [Compound 176]
 | D (percent of modification <10%) | D (percent of modification <10%) | D (percent of modification <10%) | 100 to 1000 nM | C=CC(=O)N1C[C@H](N(C)c2nc(OC[C@@]34CCCN3C[C@H](F)C4)nc3c(F)c(-c4ccc(F)c5sc(N)c(C#N)c45)c(C(F)(F)F)cc23)C[C@H]1C (atropisomer, axis not shown) [Compound 177]
 | A (percent of modification ≥70%) | A (percent of modification ≥70%) | A (percent of modification ≥70%) | < 100 nM | C=CC(=O)N1CC[C@@H](N(CC)c2nc(OC[C@@H]3C[C@@H](OC)CN3C)nc3c(F)c(-c4ccc(F)c5sc(N)c(C#N)c45)c(C(F)(F)F)cc23)[C@H]1C (single isomer, unassigned) [Compound 116]
 | D (percent of modification <10%) | D (percent of modification <10%) | D (percent of modification <10%) | > 1000 nM | C=CC(=O)N1CC[C@@H](N(CC)c2nc(OC[C@@H]3C[C@@H](OC)CN3C)nc3c(F)c(-c4ccc(F)c5sc(N)c(C#N)c45)c(C(F)(F)F)cc23)[C@H]1C (single isomer, unassigned) [Compound 117]
< 100 nM | A (percent of modification ≥70%) | A (percent of modification ≥70%) | A (percent of modification ≥70%) |  | C=CC(=O)N1CC[C@@H](N(C)c2nc(OC[C@@H]3C[C@@H](OC)CN3C)nc3c(F)c(-c4ccc(F)c5sc(N)c(C#N)c45)c(C(F)(F)F)cc23)[C@H]1C (single isomer, unassigned) [Compound 172]
< 100 nM | B (50≤percent of modification <70%) | A (percent of modification ≥70%) |  |  | C=CC(=O)N1CC[C@@H](N(C)c2nc(OC[C@@H]3CCCN3CC)nc3c(F)c(-c4ccc(F)c5sc(N)c(C#N)c45)c(C(F)(F)F)cc23)[C@@H]1C [Compound 30]
< 100 nM | C (10%≤percent of modification <50%) | A (percent of modification ≥70%) |  |  | C=CC(=O)N1CC[C@@H](N(C)c2nc(OC[C@@H]3C[C@@H](F)CN3C)nc3c(F)c(-c4ccc(F)c5sc(N)c(C#N)c45)c(C(F)(F)F)cc23)[C@@H]1C [Compound 32]
< 100 nM |  | C (10%≤percent of modification <50%) | B (50≤percent of modification <70%) |  | C=CC(=O)N1C[C@@H](C)N(c2nc(OC[C@@]34CCCN3C[C@H](F)C4)nc3c(F)c(-c4ccc(F)c5sc(N)c(C#N)c45)c(C(F)(F)F)cc23)C[C@@H]1C [Compound 124]
< 100 nM | A (percent of modification ≥70%) | A (percent of modification ≥70%) |  |  | C=CC(=O)N1CC[C@@H](N(C)c2nc(OC[C@@]34CCCN3C[C@H](OC)C4)nc3c(F)c(-c4ccc(F)c5sc(N)c(C#N)c45)c(C(F)(F)F)cc23)[C@H]1C [Compound 151]
